Results from patent publication US10570122B2, “Compounds with anti-tumoral activity” (AB Science, priority 2015, dated 2020).

Assays:
HL60 = assay: CellTiter-Blue cell-based survival/proliferation assay, HL60; conditions: Homo sapiens, HL-60, Leukemia cell line HL60, 48 h, read-out: Anti-tumoral activity (measured IC50) HL60
Protocol: (§1) Cell-Based Proliferation Screening of Compounds
(§2) CellTiter-Blue cell-based survival/proliferation assay (Promega G8080) was performed on tumor cell lines. A total of 1·10^4 cells/well/50 μl were seeded in a 96-wells plate. Treatment was initiated by addition of a 2× drug solution of 1/10 serial dilutions ranging from 0 to 10 μM. Cells were grown for 48 h at 37° C. and then incubated with 10 μl/well of Promega CellTiter-Bleue reagent for 4 h at 37° C. The amount of resorufin dye formed was quantified by its fluorescence emission at 590 nm using a scanning multiwell spectrophotometer (OPTIMA, BMG labtech, France). A blank well without cells was used as a background control for the spectrophotometer.

OPM2 = assay: CellTiter-Blue cell-based survival/proliferation assay, OPM2; conditions: Homo sapiens, OPM-2, Myeloma cell line OPM2, 48 h, read-out: Anti-tumoral activity (measured IC50) OPM2
Protocol: as §1, §2

A498 = assay: CellTiter-Blue cell-based survival/proliferation assay, A498; conditions: Homo sapiens; A498 kidney tumor cell line, 48 h
Protocol: as §1, §2

A549 = assay: CellTiter-Blue cell-based survival/proliferation assay, A549; conditions: Homo sapiens; A549 lung tumor cell line, 48 h
Protocol: as §1, §2

ACHN = assay: CellTiter-Blue cell-based survival/proliferation assay, ACHN; conditions: Homo sapiens; ACHN kidney tumor cell line, 48 h
Protocol: as §1, §2

AGS = assay: CellTiter-Blue cell-based survival/proliferation assay, AGS; conditions: Homo sapiens; AGS stomach tumor cell line, 48 h
Protocol: as §1, §2

BT20 = assay: CellTiter-Blue cell-based survival/proliferation assay, BT20; conditions: Homo sapiens, BT-20; BT20 breast tumor cell line, 48 h
Protocol: as §1, §2

BXPC3 = assay: CellTiter-Blue cell-based survival/proliferation assay, BXPC3; conditions: Homo sapiens, BXPC-3; BXPC3 pancreas tumor cell line, 48 h
Protocol: as §1, §2

CALU6 = assay: CellTiter-Blue cell-based survival/proliferation assay, CALU6; conditions: Homo sapiens, Calu-6; CALU6 lung tumor cell line, 48 h
Protocol: as §1, §2

CLS354 = assay: CellTiter-Blue cell-based survival/proliferation assay, CLS354; conditions: Homo sapiens, CLS-354; CLS354_4 head & neck tumor cell line, 48 h
Protocol: as §1, §2

DLD1 = assay: CellTiter-Blue cell-based survival/proliferation assay, DLD1; conditions: Homo sapiens, DLD-1; DLD_1 colorectal tumor cell line, 48 h
Protocol: as §1, §2

DU145 = assay: CellTiter-Blue cell-based survival/proliferation assay, DU145; conditions: Homo sapiens, DU-145; DU145 prostate tumor cell line, 48 h
Protocol: as §1, §2

H1299 = assay: CellTiter-Blue cell-based survival/proliferation assay, H1299; conditions: Homo sapiens, NCI-H1299; H1299 lung tumor cell line, 48 h
Protocol: as §1, §2

HCT116 = assay: CellTiter-Blue cell-based survival/proliferation assay, HCT116; conditions: Homo sapiens, HCT-116; HCT116 colorectal tumor cell line, 48 h
Protocol: as §1, §2

HEP2 = assay: CellTiter-Blue cell-based survival/proliferation assay, HEP2; conditions: Homo sapiens, HEp-2; HEP2 head & neck tumor cell line, 48 h
Protocol: as §1, §2

HEPG2 = assay: CellTiter-Blue cell-based survival/proliferation assay, HEPG2; conditions: Homo sapiens; HEPG2 liver tumor cell line, 48 h
Protocol: as §1, §2

HGC27 = assay: CellTiter-Blue cell-based survival/proliferation assay, HGC27; conditions: Homo sapiens, HGC-27; HGC27 stomach tumor cell line, 48 h
Protocol: as §1, §2

MDAMB231 = assay: CellTiter-Blue cell-based survival/proliferation assay, MDAMB231; conditions: Homo sapiens, MDA-MB-231; MDAMB231 breast tumor cell line, 48 h
Protocol: as §1, §2

MESSA = assay: CellTiter-Blue cell-based survival/proliferation assay, MESSA; conditions: Homo sapiens, MES-SA; MESSA ovary tumor cell line, 48 h
Protocol: as §1, §2

PANC1 = assay: CellTiter-Blue cell-based survival/proliferation assay, PANC1; conditions: Homo sapiens, PANC-1; PANC_1 pancreas tumor cell line, 48 h
Protocol: as §1, §2

PC3 = assay: CellTiter-Blue cell-based survival/proliferation assay, PC3; conditions: Homo sapiens, PC-3; PC3 prostate tumor cell line, 48 h
Protocol: as §1, §2

PLCPRF5 = assay: CellTiter-Blue cell-based survival/proliferation assay, PLCPRF5; conditions: Homo sapiens, PLC-PRF-5; PLC_PRF5 liver tumor cell line, 48 h
Protocol: as §1, §2

SW579 = assay: CellTiter-Blue cell-based survival/proliferation assay, SW579; conditions: Homo sapiens; SW579 head & neck tumor cell line, 48 h
Protocol: as §1, §2

TOV112D = assay: CellTiter-Blue cell-based survival/proliferation assay, TOV112D; conditions: Homo sapiens; TOV112D ovary tumor cell line, 48 h
Protocol: as §1, §2

[1] = tested on: panel of about 34 human tumor cell lines; assay: Cell-based proliferation screening on panel of tumor cell lines; conditions: solid tumor cell line, cell line unknown, 48 h, read-out: IC50, solid tumor cell line of column 6 (last section of Table 3)
Protocol: Compounds of formula (I) were tested against a panel of about 34 human tumor cell lines representing 17 cancer type, namely leukemia (represented by 1 cell line), lymphoma (4 cell lines), myeloma (1 cell line), colorectal (2 cell lines), head and neck (3 cell lines), lung (3 cell lines), melanoma (2 cell lines), pancreas (2 cell lines), prostate (2 cell lines), ovary (2 cell lines) breast (2 cell lines), kidney (2 cell lines), stomach (2 cell lines), liver (2 cell lines), glioblastoma (2 cell lines), osteosarcoma (1 cell line), Ewing Sarcoma (1 cell line).
as §1, §2

| Compound | IC50 (HL60) | IC50 (OPM2) | IC50 (A498) | IC50 (A549) | IC50 (ACHN) | IC50 (AGS) | IC50 (BT20) | IC50 (BXPC3) | IC50 (CALU6) | IC50 (CLS354) | IC50 (DLD1) | IC50 (DU145) | IC50 (H1299) | IC50 (HCT116) | IC50 (HEP2) | IC50 (HEPG2) | IC50 (HGC27) | IC50 (MDAMB231) | IC50 (MESSA) | IC50 (PANC1) | also measured |
| --- | --- | --- | --- | --- | --- | --- | --- | --- | --- | --- | --- | --- | --- | --- | --- | --- | --- | --- | --- | --- | --- |
| CCOCc1ccc(C)c(Nc2ncc(-c3ccc(-n4nccc4C)cc3)o2)c1 [Example 041, (5-Ethoxymethyl-2-methyl-phenyl)-{5-[4-(5-methyl-pyrazol-1-yl)-phenyl]-oxazol-2-yl}-amine] | 500 to 1000 nM | 500 to 1000 nM | > 1000 nM | > 1000 nM | > 1000 nM | > 1000 nM | > 1000 nM | > 1000 nM | > 1000 nM | > 1000 nM | > 1000 nM | > 1000 nM | > 1000 nM | > 1000 nM | > 1000 nM | > 1000 nM | > 1000 nM | > 1000 nM | > 1000 nM | > 1000 nM | IC50 (PC3): > 1000 nM; IC50 (PLCPRF5): > 1000 nM; IC50 (SW579): > 1000 nM; IC50 (TOV112D): 100 to 500 nM; IC50 [1]: 100 to 500 nM |
| CCOCc1ccc(C)c(Nc2ncc(-c3ccc(-n4nc[nH]c4=O)cc3)o2)c1 [Example 043, 2-{4-[2-(5-Ethoxymethyl-(2-methyl-phenylamino))-oxazol-5-yl]-phenyl}-2,4-dihydro-[1,2,4]triazol-3-one] | 500 to 1000 nM | 500 to 1000 nM | > 1000 nM | > 1000 nM | > 1000 nM | > 1000 nM | > 1000 nM | > 1000 nM | > 1000 nM | > 1000 nM | > 1000 nM | > 1000 nM | > 1000 nM | > 1000 nM | > 1000 nM | > 1000 nM | > 1000 nM | > 1000 nM | > 1000 nM | > 1000 nM | IC50 (PC3): > 1000 nM; IC50 (PLCPRF5): > 1000 nM; IC50 (SW579): > 1000 nM; IC50 (TOV112D): 100 to 500 nM; IC50 [1]: 100 to 500 nM |
| CCOCc1ccc(C)c(Nc2ncc(-c3ccc(N4C(=O)NC[C@H]4C)cc3)o2)c1 [Example 051, (R)-1-(4-(2-((5-(ethoxymethyl)-2-methylphenyl)amino)oxazol-5-yl)phenyl)-5-methylimidazolidin-2-one] | ≤ 100 nM | ≤ 100 nM | > 1000 nM | > 1000 nM | > 1000 nM | > 1000 nM | > 1000 nM | > 1000 nM | > 1000 nM | ≤ 100 nM | > 1000 nM | > 1000 nM | > 1000 nM | > 1000 nM | 100 to 500 nM | > 1000 nM | > 1000 nM | > 1000 nM | > 1000 nM | > 1000 nM | IC50 (PC3): ≤ 100 nM; IC50 (PLCPRF5): > 1000 nM; IC50 (SW579): > 1000 nM; IC50 (TOV112D): ≤ 100 nM; IC50 [1]: 100 to 500 nM |
| CCOCc1ccc(C)c(Nc2ncc(-c3ccc(-n4c(C)n[nH]c4=O)cc3)o2)c1 [Example 052, 4-(4-(2-((5-(ethoxymethyl)-2-methylphenyl)amino)oxazol-5-yl)phenyl)-5-methyl-2,4-dihydro-3H-1,2,4-triazol-3-one] | > 1000 nM | > 1000 nM | > 1000 nM | > 1000 nM | > 1000 nM | > 1000 nM | > 1000 nM | > 1000 nM | > 1000 nM | > 1000 nM | > 1000 nM | > 1000 nM | > 1000 nM | > 1000 nM | > 1000 nM | > 1000 nM | > 1000 nM | > 1000 nM | > 1000 nM | > 1000 nM | IC50 (PC3): > 1000 nM; IC50 (PLCPRF5): > 1000 nM; IC50 (SW579): > 1000 nM; IC50 (TOV112D): > 1000 nM; IC50 [1]: > 1000 nM |
| CCOCc1cc(COCC)cc(Nc2ncc(-c3ccc(N4CCNC4=O)cc3)o2)c1 [Example 053, 1-(4-(2-((3,5-bis(ethoxymethyl)phenyl)amino)oxazol-5-yl)phenyl)imidazolidin-2-one] | ≤ 100 nM | ≤ 100 nM | > 1000 nM | > 1000 nM | > 1000 nM | 100 to 500 nM | > 1000 nM | > 1000 nM | > 1000 nM | ≤ 100 nM | > 1000 nM | > 1000 nM | > 1000 nM | ≤ 100 nM | ≤ 100 nM | > 1000 nM | 100 to 500 nM | > 1000 nM | ≤ 100 nM | > 1000 nM | IC50 (PC3): ≤ 100 nM; IC50 (PLCPRF5): > 1000 nM; IC50 (SW579): > 1000 nM; IC50 (TOV112D): > 1000 nM; IC50 [1]: ≤ 100 nM |
